Test [1] deals with AVP (arg-vasopressin) levels of eye plexus plasma. Nature of the test: Vasopressin release: AVP levels of eye plexus plasma (RIA). It is filed as in vivo, Female Wistar rats. As to conditions: 10 μg per rat subcutaneously. As for the experimental part: The effect of (2-9)-α-endorfine on AVP (arg-vasopressin) levels of eye plexus plasma was tested.
Female Wistar rats (140-160 g) were anaesthetized with ether for a strictly controlled period of 45 seconds. Samples of eye plexus blood were taken and stored in cooled plastic tubes to which heparin was added. The tubes were centrifuged at 4° C. in order to obtain the plasma. The immunoreactive AVP was directly measured in 20 μl of eye plexus plasma with the aid of RIA (radio-immuno-assay) methods.
The rats were treated with placebo or with 10 μg of (2-9)-α-endorfine per rat, injected subcutaneously.

A further test concerns rats. The experiment in a line: Apomorphine induced stereotyped sniffing. As to conditions: for (Stereotyped) sniffing: after 1 h apomorphine 250 μg/kg s.c., tested 20 min later, measured for 4 min. It is filed as in vivo. The procedure:
Subcutaneous treatment of rats with apomorphine (250 μg/kg) elicits hyperlocomotion and especially stereotyped sniffing behavoir. Increase of this stereotyped sniffing by pretreatment with the drug to be tested in considered to be an indication for dopaminergic activity.
Groups of rats were subcutaneously injected with placebo (0.5 ml saline), (2-9)-α-endorfine (50 μg) or (3-9)-α-endorfine (50 μg) and after 1 h. with apomorphine (250 μg/kg). An additional group of rats received two placebo (0.5 ml saline) injections. Twenty minutes after the last injection the rats were tested in a small open field and the duration of stereotyped sniffing was measured for 4 min.

For test [2] the following is noted: pole-jumping test; delaying extinction of conditioned avoidance behavior; Pharmac. Ther. 16, 67, 1982; cited from earlier work.

Where a SMILES comes first, the peptide text is derived from it.

On to `CSCC[C@H](NC(=O)[C@H](Cc1ccccc1)NC(=O)CNC(=O)CN)C(=O)N[C@H](C(=O)N[C@@H](CO)C(=O)N[C@@H](CCC(=O)O)C(=O)N[C@@H](CCCCN)C(=O)O)[C@@H](C)O` [(2-9)-α-endorfine, H-Gly-Gly-L-Phe-L-Met-L-Thr-L-Ser-L-Glu-L-Lys-OH] (H-GGFMTSEK-OH), for which the AVP levels in test [1] (2 minutes after injection) is 667 pg/mL; in test [1] (5 minutes after injection), 92 pg/mL; in test [1] (10 minutes after injection), 78 pg/mL. In addition, in the test on rats (pretreatment 50 μg s.c.), the “(Stereotyped) sniffing” value was 158.0 s. For the same compound, the “potentiation of apomorphine-induced stereotyped sniffing” value in the test with rats (pretreatment 50 μg, apomorphine 250 μg/kg s.c.) was “potentiated”. Also, the “times less active than α-endorfine” value in test [2] is 10 times.

With `CN1CCc2cccc3c2[C@H]1Cc1ccc(O)c(O)c1-3` [apomorphine, reference compound], the “(Stereotyped) sniffing” value with rats (placebo (0.5 ml saline) pretreatment) was 121.4 s.

(Values after patent US4593017A, “Methods of treating patients using a pharmaceutical preparation containing an α-endorfine fragment” (Akzo N.V., priority 1982, dated 1986).)
